Data as given in patent US12668600B2 (Kumquat Biosciences Inc., priority 2023, dated 2026).

Key:
Assay type in all cases: biochemical
KRAS G12D = molecular target: T1, KRAS G12D (Homo sapiens, UniProt P01116, G12D); experiment: HTRF KRAS-SOS1 interaction assay, KRAS G12D; settings: binned ≤2 μM / >2 μM, read-out: Inhibition of KRAS G12D (IC50)
T1 construct: made in house; host or cells: E. coli, e.g. BL21 (DE3)
In short: (§1)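 Read-out: HTRF ratio 665/620 nm after ≥10 min incubation of compound with GST-KRAS/anti-GST-Eu and His-hSOS1/anti-6His-XL665. Duplicate dose series, 10 μM down to 0.01 μM. Buffer HEPES pH 7.4, NaCl, DTT, BSA, Igepal.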

KRAS WT = molecular target: T2, KRAS WT (Homo sapiens, UniProt P01116); experiment: HTRF KRAS-SOS1 interaction assay, wildtype KRAS; settings: binned ≤2 μM / >2 μM, read-out: Inhibition of KRAS WT (IC50)
T2 construct: made in house; host or cells: E. coli, e.g. BL21 (DE3)
T2 sequence (P01116 1-188 isoform P01116-2): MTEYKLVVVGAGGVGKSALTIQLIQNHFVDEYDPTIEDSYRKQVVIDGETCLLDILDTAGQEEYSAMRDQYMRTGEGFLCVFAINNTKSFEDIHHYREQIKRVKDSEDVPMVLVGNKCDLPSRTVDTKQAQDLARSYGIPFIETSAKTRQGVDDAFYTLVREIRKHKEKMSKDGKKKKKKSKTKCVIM
In short: as §1

KRAS G12V = molecular target: T3, KRAS G12V (Homo sapiens, UniProt P01116, G12V); experiment: HTRF KRAS-SOS1 interaction assay, KRAS G12V; settings: binned ≤2 μM / >2 μM, read-out: Inhibition of KRAS G12V (IC50)
T3 construct: made in house; host or cells: E. coli, e.g. BL21 (DE3)
T3 sequence (P01116 1-188 isoform P01116-2 G12V): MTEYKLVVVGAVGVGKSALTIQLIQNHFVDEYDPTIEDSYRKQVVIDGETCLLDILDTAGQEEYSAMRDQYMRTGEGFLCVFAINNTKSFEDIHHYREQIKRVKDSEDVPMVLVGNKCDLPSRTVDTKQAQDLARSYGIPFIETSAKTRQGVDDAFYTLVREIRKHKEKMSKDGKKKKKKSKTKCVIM
In short: as §1

KRAS G12S = molecular target: T4, KRAS G12S (Homo sapiens, UniProt P01116, G12S); experiment: HTRF KRAS-SOS1 interaction assay, KRAS G12S; settings: binned ≤2 μM / >2 μM, read-out: Inhibition of KRAS G12S (IC50)
T4 construct: made in house; host or cells: E. coli, e.g. BL21 (DE3)
T4 sequence (P01116 1-188 isoform P01116-2 G12S): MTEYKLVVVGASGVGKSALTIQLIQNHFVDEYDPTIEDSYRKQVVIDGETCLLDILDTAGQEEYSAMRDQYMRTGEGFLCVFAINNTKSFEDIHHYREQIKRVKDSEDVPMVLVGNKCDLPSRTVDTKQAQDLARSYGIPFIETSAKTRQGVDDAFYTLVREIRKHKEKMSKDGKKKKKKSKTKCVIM
In short: as §1

Measured: IC50

T1 sequence (P01116 1-188 isoform P01116-2 G12D): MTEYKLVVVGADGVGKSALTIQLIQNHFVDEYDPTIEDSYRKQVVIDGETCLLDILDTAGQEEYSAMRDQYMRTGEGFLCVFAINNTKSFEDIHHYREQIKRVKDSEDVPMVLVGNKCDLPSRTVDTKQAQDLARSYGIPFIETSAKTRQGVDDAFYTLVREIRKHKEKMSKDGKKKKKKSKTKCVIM

CN1CCC[C@H]1COc1nc2c3c(c(Cl)c(-c4ccc(F)c5sc(N)c(C#N)c45)c(F)c3n1)OCCN2C(c1cccnc1N)C(F)F (mixture of isomers) [Compound 769, 2-amino-4-(4-(1-(2-aminopyridin-3-yl)-2,2-difluoroethyl)-8-chloro-10-fluoro-2-(((S)-1-methylpyrrolidin-2-yl)methoxy)-5,6-dihydro-4H-[1,4]oxazepino[5,6,7-de]quinazolin-9-yl)-7-fluorobenzo[b]thiophene-3-carbonitrile]
≤ 2000 nM: all assays above

N#Cc1c(N)sc2c(F)ccc(-c3c(C(F)(F)F)c4c5c(nc(OC[C@@]67CCCN6C[C@H](F)C7)nc5c3F)N([C@H](CC3CCOC3)c3cccnc3N)CCO4)c12 (single isomer, unassigned) [Compound 692]
≤ 2000 nM: all assays above

N#Cc1c(N)sc2c(F)ccc(-c3c(C(F)(F)F)c4c5c(nc(OC[C@@]67CCCN6C[C@@]6(CC6(F)F)C7)nc5c3F)N([C@H](CCC(F)(F)F)c3cccnc3N)CCO4)c12 [Compound 883, 2-amino-4-(4-((R)-1-(2-aminopyridin-3-yl)-4,4,4-trifluorobutyl)-2-(((1S,7a′S)-2,2-difluorodihydro-1′H,3′H-spiro[cyclopropane-1,2′-pyrrolizin]-7a′(5′H)-yl)methoxy)-10-fluoro-8-(trifluoromethyl)-5,6-dihydro-4H-[1,4]oxazepino[5,6,7-de]quinazolin-9-yl)-7-fluorobenzo[b]thiophene-3-carbonitrile]
≤ 2000 nM: all assays above

C[C@H](c1cccnc1N)N1CCOc2c(Cl)c(-c3ccc(F)c4sc(N)c(C#N)c34)c(F)c3nc(OC[C@@]45CCCN4C[C@@]4(CC4(F)F)C5)nc1c23 [Compound 740, 2-amino-4-((R)-4-((R)-1-(2-aminopyridin-3-yl)ethyl)-8-chloro-2-(((1S,7a'S)-2,2-difluorodihydro-1′H,3′H-spiro[cyclopropane-1,2′-pyrrolizin]-7a′ (5′H)-yl)methoxy)-10-fluoro-5,6-dihydro-4H-[1,4]oxazepino[5,6,7-de]quinazolin-9-yl)-7-fluorobenzo[b]thiophene-3-carbonitrile]
≤ 2000 nM: all assays above

N#Cc1c(N)sc2c(F)ccc(-c3c(C(F)(F)F)c4c5c(nc(OC[C@@]67CCCN6C[C@H](F)C7)nc5c3F)N([C@H](CC3CCOCC3)c3cc(F)cnc3N)CCO4)c12 [Compound 634, 2-amino-4-(4-((R)-1-(2-amino-5-fluoropyridin-3-yl)-2-(tetrahydro-2H-pyran-4-yl)ethyl)-10-fluoro-2-(((2R,7aS)-2-fluorotetrahydro-1H-pyrrolizin-7a(5H)-yl)methoxy)-8-(trifluoromethyl)-5,6-dihydro-4H-[1,4]oxazepino[5,6,7-de]quinazolin-9-yl)-7-fluorobenzo[b]thiophene-3-carbonitrile]
≤ 2000 nM: all assays above

N#Cc1c(N)sc2c(F)ccc(-c3c(C(F)(F)F)c4c5c(nc(OCC6(CN7CCC8(CC7)CC8(F)F)CC6)nc5c3F)N([C@H](CCC(F)(F)F)c3cccnc3N)CCO4)c12 [Compound 637, 2-amino-4-(4-((R)-1-(2-aminopyridin-3-yl)-4,4,4-trifluorobutyl)-2-((1-((1,1-difluoro-6-azaspiro[2.5]octan-6-yl)methyl)cyclopropyl)methoxy)-10-fluoro-8-(trifluoromethyl)-5,6-dihydro-4H-[1,4]oxazepino[5,6,7-de]quinazolin-9-yl)-7-fluorobenzo[b]thiophene-3-carbonitrile]
≤ 2000 nM: all assays above
